Results: PMC9917282, “Crystal Structure of Inhibitor-Bound Bacterial Oligopeptidase B in the Closed State: Similarity and Difference between Protozoan and Bacterial Enzymes” (International Journal of Molecular Sciences, 2023)

Target: T1, SpOpB (PSP) (Serratia proteamaculans, UniProt B3VI58)
T1 construct: gene opdB; plasmid pET-6HisOpB, expressed in E. coli BL21(DE3)RIPL; monomer in asymmetric unit
T1 sequence (B3VI58 2-677): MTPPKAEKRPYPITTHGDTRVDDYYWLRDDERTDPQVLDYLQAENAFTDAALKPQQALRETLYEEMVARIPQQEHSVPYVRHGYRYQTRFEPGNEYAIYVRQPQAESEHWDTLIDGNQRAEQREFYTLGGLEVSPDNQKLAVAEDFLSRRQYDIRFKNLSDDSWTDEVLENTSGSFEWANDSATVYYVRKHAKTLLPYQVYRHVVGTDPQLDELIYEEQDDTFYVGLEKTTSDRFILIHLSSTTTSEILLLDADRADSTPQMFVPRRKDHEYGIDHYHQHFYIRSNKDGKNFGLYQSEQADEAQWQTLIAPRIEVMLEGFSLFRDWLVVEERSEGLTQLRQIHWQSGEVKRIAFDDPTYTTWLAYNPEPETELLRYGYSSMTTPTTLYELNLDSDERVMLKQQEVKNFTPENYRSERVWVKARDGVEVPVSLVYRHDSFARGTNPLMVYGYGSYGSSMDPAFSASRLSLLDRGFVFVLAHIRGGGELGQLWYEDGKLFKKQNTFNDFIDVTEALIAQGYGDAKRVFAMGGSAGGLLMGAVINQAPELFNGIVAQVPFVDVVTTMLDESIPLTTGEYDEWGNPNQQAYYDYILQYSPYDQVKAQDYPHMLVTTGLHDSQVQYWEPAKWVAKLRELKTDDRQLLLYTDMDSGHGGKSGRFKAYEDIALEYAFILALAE
Test: Kitz-Wilson inactivation kinetics, residual BAPNA hydrolysis at […] nm; crystal structure of complex at […] A
Type: biochemical
Conditions: covalent; irreversible alkylation, Ki of the initial enzyme-inhibitor complex; bound to S532 and H652; 0.1 M Tris-HCl pH 8.0, 25 °C; 70 nM enzyme, 50–260 µM TCK

Cc1ccc(S(=O)(=O)N[C@@H](CCCCN)C(=O)CCl)cc1 [TCK]
KI (inactivation): 280 ± 60 µM
